Measured values as given in ChEMBL document CHEMBL1201862, “PubChem BioAssay data set” (2004).
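Tested at 5 concentrations; 48 h exposure; 96-well plates; endpoints linearly interpolated, else capped at highest concentration. Here, GI50 denotes the concentration required for 50% inhibition of growth.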 Calls of active or inactive are those of the source. Rule as the data show it: active = GI50 up to about 1.1 µM and inactive = higher.

Columns and labels:
Assay in all cases: growth of human tumour cells (NCI), 48 h
[1] = test system: A498
[2] = test system: DMS-273
[3] = test system: HOP-18
[4] = test system: HOP-92
[5] = test system: IGROV-1
[6] = test system: M19-MEL
[7] = test system: MCF7
[8] = test system: MOLT-4
[9] = test system: Malme-3M
[10] = test system: NCI/ADR-RES
[11] = test system: SF-268
[12] = test system: SF-295
[13] = test system: SN12C

Measured: GI50

CC(C)CC/N=c1/cc2n(-c3ccc(Cl)cc3)c3ccccc3nc-2cc1Nc1ccc(Cl)cc1
inactive: [1] 15 µM | [2] 14.6 µM | [3] 7.05 µM | [4] 4.92 µM | [5] 3.13 µM | [6] 6.89 µM | [7] 5.36 µM | [8] 2.16 µM | [9] 11.9 µM | [10] 10.1 µM | [11] 27.5 µM | [12] 11.9 µM | [13] 9.27 µM
